Experimental data as given in ChEMBL document CHEMBL1130478, “Mono and bis double ester prodrugs of novel aminomethyl-THF 1-methylcarbapenems” (Bioorg Med Chem Lett, 1997).
Converted amounts (≈) assume the structure as drawn. One block for each compound: values may come before it.

Columns and labels:
Type in all cases: functional
[1] = test system: Acinetobacter calcoaceticus; test: In vitro antibacterial activity against Acinetobacter calcoaceticus (GC 756) following preincubation in mouse serum
Citrobacter freundii [2] = test: In vitro antibacterial activity against C. freundii(GC 2211) following pre-incubation in mouse serum
Citrobacter freundii [3] = test: In vitro antibacterial activity against C. freundii(GC 2211) without preincubation in mouse serum
[4] = target: T1, Dipeptidase 1 (Sus scrofa) (UniProt P22412); test: Relative hydrolysis by hog Dehydropeptidase
T1 sequence (whole entry): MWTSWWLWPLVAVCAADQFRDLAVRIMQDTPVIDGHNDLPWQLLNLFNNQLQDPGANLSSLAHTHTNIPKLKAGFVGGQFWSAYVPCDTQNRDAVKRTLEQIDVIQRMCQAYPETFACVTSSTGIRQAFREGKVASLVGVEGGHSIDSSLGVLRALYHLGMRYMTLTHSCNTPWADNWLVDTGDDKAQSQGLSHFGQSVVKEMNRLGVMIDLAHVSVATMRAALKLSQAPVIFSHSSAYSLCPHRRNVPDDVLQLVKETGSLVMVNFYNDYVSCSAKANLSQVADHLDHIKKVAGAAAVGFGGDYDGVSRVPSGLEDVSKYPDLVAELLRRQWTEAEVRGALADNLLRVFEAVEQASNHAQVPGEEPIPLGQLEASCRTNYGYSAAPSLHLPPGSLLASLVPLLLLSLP

Enterococcus faecalis [5] = test: In vitro antibacterial activity against E. faecalis(GC 842) without pre-incubation in mouse serum
Enterococcus faecalis [6] = test: In vitro antibacterial activity against E. faecalis(GC 842) following pre-incubation in mouse serum
Enterobacter cloacae [7] = test: In vitro antibacterial activity against E. cloacae(GC 2209) following preincubation in mouse serum
Enterobacter cloacae [8] = test: In vitro antibacterial activity against E. cloacae(GC 2209) without pre-incubation in mouse serum
Enterococcus faecium [9] = test: In vitro for antibacterial activity against E. faecium(GC 1182) without pre-incubation in mouse serum
Escherichia coli [10] = test: In vitro antibacterial activity expressed as MIC against Escherichia coli (ATCC 25922) following pre-incubation in mouse serum
Escherichia coli [11] = test: In vitro antibacterial activity expressed as MIC against Escherichia coli (ATCC 25922) without pre-incubation in mouse serum
Escherichia coli [12] = test: In vitro antibacterial activity expressed as MIC against E. coli(GC 1792) following pre-incubation in mouse serum
Escherichia coli [13] = test: In vitro antibacterial activity expressed as MIC against E. coli(GC 1792) without pre-incubation in mouse serum
Escherichia coli [14] = test: In vitro antibacterial activity expressed as MIC against E. coli(GC 2205) following pre-incubation in mouse serum
Escherichia coli [15] = test: In vitro antibacterial activity expressed as MIC against E. coli(GC 2205) without pre-incubation in mouse serum
Mus musculus [16] = test: Antibacterial activity against Escherichia coli (311) infection in mice after single oral dose, activity expressed as ED50
Mus musculus [17] = test: Antibacterial activity against Escherichia coli (311) infection in mice after single subcutaneous dose, activity expressed as ED50; conditions: sc
Morganella morganii [18] = test: In vitro antibacterial activity against M. morganii(GC 2213) following pre-incubation in mouse serum
Morganella morganii [19] = test: In vitro antibacterial activity against M. morganii(GC 2213) without pre-incubation in mouse serum
Pseudomonas aeruginosa [20] = test: In vitro antibacterial activity against Pseudomonas aeruginosa (ATCC 27853) following pre-incubation in mouse serum
Pseudomonas aeruginosa [21] = test: In vitro antibacterial activity against Pseudomonas aeruginosa (ATCC 27853) without pre-incubation in mouse serum
Pseudomonas aeruginosa [22] = test: In vitro antibacterial activity against P. aeruginosa(GC 1544 oprd) without pre-incubation in mouse serum
Staphylococcus aureus [23] = test: In vitro antibacterial activity against S aureus(ATCC 29213) following preincubation in mouse serum
Staphylococcus aureus [24] = test: In vitro antibacterial activity against S. aureus(ATCC 29213) without pre-incubation in mouse serum
Staphylococcus aureus [25] = test: In vitro antibacterial activity against S. aureus(GC 2220 MRSA) without pre-incubation in mouse serum
[26] = test system: Stenotrophomonas maltophilia; test: In vitro antibacterial activity against X. maltophilia(GC 562) without pre-incubation in mouse serum
Staphylococcus aureus [27] = test: In vitro antibacterial activity against S. aureus(GC 2220 MRSA) following pre-incubation in mouse serum
Pseudomonas aeruginosa [28] = test: In vitro antibacterial activity against P. aeruginosa(GC 1544 oprd) following pre-incubation in mouse serum
[29] = test system: Stenotrophomonas maltophilia; test: In vitro antibacterial activity against X. maltophilia(GC 562) following pre-incubation in mouse serum
[30] = test system: Acinetobacter calcoaceticus; test: In vitro antibacterial activity against Acinetobacter calcoaceticus (GC 756) without preincubation in mouse serum
Enterococcus faecium [31] = test: In vitro for antibacterial activity against E. faecium(GC 1182) following pre-incubation in mouse serum

MIC [1]: 8 µg/mL (≈ 13.3 µM)
MIC (Citrobacter freundii [2]): 0.5 µg/mL (≈ 0.83 µM)
MIC (Citrobacter freundii [3]): > 128 µg/mL
Relative hydrolysis [4]: 20
MIC (Enterococcus faecalis [5]): 64 µg/mL (≈ 106 µM)
MIC (Enterococcus faecalis [6]): 4 µg/mL (≈ 6.64 µM)
MIC (Enterobacter cloacae [7]): 0.25 µg/mL (≈ 0.415 µM)
MIC (Enterobacter cloacae [8]): > 128 µg/mL
MIC (Enterococcus faecium [9]): > 128 µg/mL
MIC (Escherichia coli [10]): 0.06 µg/mL (≈ 0.0996 µM)
MIC (Escherichia coli [11]): 128 µg/mL (≈ 212 µM)
MIC (Escherichia coli [12]): 0.12 µg/mL (≈ 0.199 µM)
MIC (Escherichia coli [13]): > 128 µg/mL
MIC (Escherichia coli [14]): 0.12 µg/mL (≈ 0.199 µM)
MIC (Escherichia coli [15]): 1 µg/mL (≈ 1.66 µM)
MIC (Morganella morganii [18]): 4 µg/mL (≈ 6.64 µM)
MIC (Morganella morganii [19]): > 128 µg/mL
MIC (Pseudomonas aeruginosa [20]): 32 µg/mL (≈ 53.1 µM)
MIC (Pseudomonas aeruginosa [21]): > 128 µg/mL
MIC (Pseudomonas aeruginosa [22]): > 128 µg/mL
MIC (Staphylococcus aureus [23]): 0.12 µg/mL (≈ 0.199 µM)
MIC (Staphylococcus aureus [24]): 4 µg/mL (≈ 6.64 µM)
MIC (Staphylococcus aureus [25]): 64 µg/mL (≈ 106 µM)
MIC [26]: > 128 µg/mL
MIC (Staphylococcus aureus [27]): 2 µg/mL (≈ 3.32 µM)
MIC (Pseudomonas aeruginosa [28]): 64 µg/mL (≈ 106 µM)
MIC [29]: > 128 µg/mL
MIC [30]: > 128 µg/mL
MIC (Enterococcus faecium [31]): > 128 µg/mL
SMILES: CCOC(=O)OCOC(=O)C1=C(S[C@@H]2CCO[C@@H]2CNC(=O)OCOC(=O)C(C)(C)C)[C@H](C)C2[C@@H]([C@@H](C)O)C(=O)N12 (stereo not given in full)
ED50 (Mus musculus [16]): 0.96 mg/kg
ED50 (Mus musculus [17]): 0.73 mg/kg

SMILES: CCOC(=O)OC(C)OC(=O)C1=C(S[C@@H]2CCO[C@@H]2CN)[C@H](C)C2[C@@H]([C@@H](C)O)C(=O)N12.Cl (stereo not given in full)
ED50 (Mus musculus [16]): 25 mg/kg
ED50 (Mus musculus [17]): 1.8 mg/kg

MIC [1]: 4 µg/mL (≈ 6.96 µM)
MIC (Citrobacter freundii [2]): 0.25 µg/mL (≈ 0.435 µM)
MIC (Citrobacter freundii [3]): 128 µg/mL (≈ 223 µM)
Relative hydrolysis [4]: 4.9
MIC (Enterococcus faecalis [5]): 64 µg/mL (≈ 111 µM)
MIC (Enterococcus faecalis [6]): 2 µg/mL (≈ 3.48 µM)
MIC (Enterobacter cloacae [7]): 0.12 µg/mL (≈ 0.209 µM)
MIC (Enterobacter cloacae [8]): 64 µg/mL (≈ 111 µM)
MIC (Enterococcus faecium [9]): > 128 µg/mL
MIC (Escherichia coli [10]): < 0.06 µg/mL
MIC (Escherichia coli [11]): 4 µg/mL (≈ 6.96 µM)
MIC (Escherichia coli [12]): < 0.06 µg/mL
MIC (Escherichia coli [13]): 8 µg/mL (≈ 13.9 µM)
MIC (Escherichia coli [14]): 0.06 µg/mL (≈ 0.104 µM)
MIC (Escherichia coli [15]): 1 µg/mL (≈ 1.74 µM)
MIC (Morganella morganii [18]): 1 µg/mL (≈ 1.74 µM)
MIC (Morganella morganii [19]): 32 µg/mL (≈ 55.7 µM)
MIC (Pseudomonas aeruginosa [20]): 16 µg/mL (≈ 27.8 µM)
MIC (Pseudomonas aeruginosa [21]): > 128 µg/mL
MIC (Pseudomonas aeruginosa [22]): > 128 µg/mL
MIC (Staphylococcus aureus [23]): 0.03 µg/mL (≈ 0.0522 µM)
MIC (Staphylococcus aureus [24]): 8 µg/mL (≈ 13.9 µM)
MIC (Staphylococcus aureus [25]): > 128 µg/mL
MIC [26]: > 128 µg/mL
MIC (Staphylococcus aureus [27]): 2 µg/mL (≈ 3.48 µM)
MIC (Pseudomonas aeruginosa [28]): 32 µg/mL (≈ 55.7 µM)
MIC [29]: > 128 µg/mL
MIC [30]: > 128 µg/mL
MIC (Enterococcus faecium [31]): 128 µg/mL (≈ 223 µM)
SMILES: CCOC(=O)OCOC(=O)C1=C(S[C@@H]2CCO[C@@H]2CNC(=O)OC(C)OC(C)=O)[C@H](C)C2[C@@H]([C@@H](C)O)C(=O)N12 (stereo not given in full)
ED50 (Mus musculus [16]): 0.83 mg/kg
ED50 (Mus musculus [17]): 0.59 mg/kg

SMILES: CCCC(=O)OCOC(=O)NC[C@H]1OCC[C@H]1SC1=C(C(=O)OCOC(=O)OCC)N2C(=O)[C@H]([C@@H](C)O)C2[C@H]1C (stereo not given in full)
ED50 (Mus musculus [16]): 1.3 mg/kg
ED50 (Mus musculus [17]): 0.49 mg/kg

SMILES: CC(OC(=O)OC1=CCCCC1)OC(=O)C1=C(S[C@@H]2CCO[C@@H]2CN)[C@H](C)C2[C@@H]([C@@H](C)O)C(=O)N12.Cl (stereo not given in full)
ED50 (Mus musculus [16]): > 3.2 mg/kg
ED50 (Mus musculus [17]): 1.6 mg/kg

SMILES: CCN(C(C)C)C(C)C.C[C@H]1C(S[C@@H]2CCO[C@@H]2CNC(=O)OCOC(=O)C(C)(C)C)=C(C(=O)O)N2C(=O)[C@H]([C@@H](C)O)C12 (stereo not given in full)
ED50 (Mus musculus [16]): 2.9 mg/kg
ED50 (Mus musculus [17]): 0.65 mg/kg

SMILES: C[C@H]1C(S[C@@H]2CCO[C@@H]2CNC(=O)OCOC(=O)c2ccccc2)=C(C(=O)[O-])N2C(=O)[C@H]([C@@H](C)O)C12.[Na+] (stereo not given in full)
ED50 (Mus musculus [16]): 2.9 mg/kg
ED50 (Mus musculus [17]): 0.32 mg/kg

SMILES: CCOC(=O)OCOC(=O)C1=C(S[C@@H]2CCO[C@@H]2CNC(=O)OC(C)OC(=O)C(C)C)[C@H](C)C2[C@@H]([C@@H](C)O)C(=O)N12 (stereo not given in full)
ED50 (Mus musculus [16]): 0.72 mg/kg
ED50 (Mus musculus [17]): 0.45 mg/kg

SMILES: CC(OC(=O)OC1=CCCCC1)OC(=O)C1=C(S[C@@H]2CCO[C@@H]2CNC(=O)OCOC(=O)C(C)C)[C@H](C)C2[C@@H]([C@@H](C)O)C(=O)N12 (stereo not given in full)
ED50 (Mus musculus [16]): 1.5 mg/kg
ED50 (Mus musculus [17]): 1.9 mg/kg

SMILES: CC(C)C(=O)OCOC(=O)NC[C@H]1OCC[C@H]1SC1=C(C(=O)OCOC(=O)C(C)(C)C)N2C(=O)[C@H]([C@@H](C)O)C2[C@H]1C (stereo not given in full)
ED50 (Mus musculus [16]): 1.6 mg/kg
ED50 (Mus musculus [17]): 1.9 mg/kg

SMILES: CCOC(=O)OCOC(=O)C1=C(S[C@@H]2CCO[C@@H]2CNC(=O)OCOC(=O)c2ccccc2)[C@H](C)C2[C@@H]([C@@H](C)O)C(=O)N12 (stereo not given in full)
ED50 (Mus musculus [16]): 0.76 mg/kg
ED50 (Mus musculus [17]): 0.54 mg/kg
